Test results reported in patent EP0195316A1, “Quinolonecarboxylic acid derivatives” (KYORIN PHARMACEUTICAL CO., LTD., priority 1985, dated 1986).
Converted amounts (≈) assume the structure as drawn. Read-outs that look alike come from different tables or passages of the source.

Key:
Type in all cases: cell-based
[1] = test system: Staphylococcus aureus 209 P; assay: MIC, in vitro antibacterial activity (standard strains); details: 10^6 cells/ml, Gram +
[2] = test system: S. aureus IID 670 (Terajima); assay: as above; details: Staphylococcus aureus, IID670, 10^6 cells/ml, Gram +
[3] = test system: Streptococcus pyogenes (S-8); assay: as above; details: Streptococcus pyogenes (S-8), 10^6 cells/ml, Gram +; read-out: MIC
[4] = test system: S. pyogenes IID 692; assay: as above; details: Streptococcus pyogenes, IID692; S. pyogenes IID 692, 10^6 cells/ml, Gram +
[5] = test system: S. pneumoniae IID 552; assay: as above; details: Streptococcus pneumoniae, IID552; S. pneumoniae IID 552, 10^6 cells/ml, Gram +; read-out: MIC
[6] = test system: E. faecalis IID 682; assay: as above; details: Enterococcus faecalis, IID682; E. faecalis IID 682, 10^6 cells/ml, Gram +
[7] = test system: Escherichia coli NIHJ JC-2; assay: as above; details: NIHJJC2; Escherichia coli NIHJ JC-2, 10^6 cells/ml, Gram -; read-out: MIC
[8] = test system: E. coli ATCC 10536; assay: as above; details: Escherichia coli, ATCC10536
[9] = test system: P. morganii IID 602; assay: as above; details: Morganella morganii, IID602; P. morganii IID 602, 10^6 cells/ml, Gram -
[10] = test system: Citrobacter freundii IID 976; assay: as above; details: IID976
[11] = test system: Serratia marcescens IID 618; assay: as above; details: IID618; Serratia marcescens IID 618, 10^6 cells/ml, Gram -
[12] = test system: Shigella sonnei IID 969; assay: as above; details: IID969; Shigella sonnei IID 969, 10^6 cells/ml, Gram -
Protocol: Minimal inhibitory concentrations (MICs) were determined in accordance with the method recommended by Japan Society of Chemotherapy.

[13] = test system: Pseudomonas aeruginosa V-1; assay: as above; details: V1; Pseudomonas aeruginosa V-1, 10^6 cells/ml, Gram -
[14] = test system: Acinetobacter anitratus IID 876; assay: as above; details: Acinetobacter calcoaceticus, IID876; Acinetobacter anitratus IID 876, 10^6 cells/ml, Gram -
[15] = test system: Fusobacterium necrophorum S-45; assay: as above; details: S45; Fusobacterium necrophorum S-45, 10^6 cells/ml, Gram -
[16] = test system: F. varium KYA 8501; assay: as above; details: Fusobacterium varium, KYA8501; F. varium KYA 8501, 10^6 cells/ml, Gram -; read-out: MIC
[17] = test system: Eubacterium lentum GAI 5242; assay: as above; details: Eggerthella lenta, GAI5242; Eubacterium lentum GAI 5242, 10^6 cells/ml, Gram +
[18] = test system: Propionibacterium acens 11828; assay: as above; details: Propionibacterium acens 11828, 10^6 cells/ml, Gram +
[19] = test system: C. perfringens KYA 13123; assay: microbe, parasite or virus in culture; details: Clostridium perfringens, KYA13123
[20] = test system: Peptostreptococcus anaerobius KYA 27337; assay: MIC, in vitro antibacterial activity (standard strains); details: KYA27337; Peptostreptococcus anaerobius KYA 27337, 10^6 cells/ml, Gram +
[21] = test system: S. epidermidis; assay: MIC, in vitro antibacterial activity (clinical isolates); details: Staphylococcus epidermidis, No. of strains 10
[22] = test system: S. pyogenes; assay: as above; details: Streptococcus pyogenes; clinical isolates S. pyogenes, No. of strains 6; read-out: MIC
[23] = test system: E. faecalis; assay: as above; details: Enterococcus faecalis, No. of strains 5
[24] = test system: N. gonorrhoeae; assay: as above; details: Neisseria gonorrhoeae, No. of strains 16
[25] = test system: N. meningitidis; assay: as above; details: Neisseria meningitidis, No. of strains 3
[26] = test system: S. marcescens; assay: as above; details: Serratia marcescens, No. of strains 20
[27] = test system: P. mirabilis; assay: as above; details: Proteus mirabilis, No. of strains 10
[28] = test system: P. vulgaris; assay: as above; details: Proteus vulgaris, No. of strains 6
[29] = test system: M. morganii; assay: as above; details: Morganella morganii, No. of strains 8
[30] = test system: C. freundii; assay: as above; details: Citrobacter freundii, No. of strains 9
[31] = test system: P. maltophilia; assay: as above; details: Stenotrophomonas maltophilia, No. of strains 9
[32] = test system: Acinetobacter sp.; assay: as above; details: clinical isolates Acinetobacter sp., No. of strains 13; read-out: MIC
[33] = test system: Campylobacter jejuni; assay: as above; details: No. of strains 20
[34] = test system: S. aureus 209 P
[35] = test system: S. aureus Smith; details: Conc. of Drugs 2MIC
[36] = test system: P. aeruginosa IFO 1210
[37] = P. aeruginosa IFO 1210, Conc. of Drugs 2MIC
[38] = P. aeruginosa IFO 1210, Conc. of Drugs 4MIC

CC1CN(c2c(F)cc3c(=O)c(C(=O)O)cn(C4CC4)c3c2Cl)CCN1 (stereo not drawn) [Ref.2, 8-Chloro-1-cyclopropyl-6-fluoro-1,4-dihydro-7-(3-methyl-1-piperazinyl)-4-oxo-3-quinolinecarboxylic acid]
MIC [1]: 0.1 µg/mL | MIC [2]: 0.1 µg/mL | MIC [3]: 0.39 µg/mL (≈ 1.03 µM) | MIC [4]: 0.78 µg/mL | MIC [5]: 0.39 µg/mL (≈ 1.03 µM) | MIC [6]: 0.39 µg/mL | MIC [7]: ≤ 6 ng/mL | MIC [8]: 0.0125 µg/mL (≈ 0.0329 µM) | MIC [9]: 0.05 µg/mL (≈ 0.132 µM) | MIC ([10]; Citrobacter freundii IID 976, 10^6 cells/ml, Gram -, read-out: MIC): 0.05 µg/mL (≈ 0.132 µM) | MIC [11]: 0.05 µg/mL (≈ 0.132 µM) | MIC [12]: 0.0125 µg/mL (≈ 0.0329 µM) | MIC [13]: 0.2 µg/mL (≈ 0.527 µM) | MIC [14]: 0.05 µg/mL (≈ 0.132 µM) | MIC [15]: 0.39 µg/mL (≈ 1.03 µM) | MIC [16]: 3.13 µg/mL (≈ 8.24 µM) | MIC [17]: 0.2 µg/mL | MIC [18]: 3.13 µg/mL | MIC [19]: 0.39 µg/mL (≈ 1.03 µM) | MIC [20]: 0.78 µg/mL | MIC [21]: 0.1 µg/mL (≈ 0.263 µM) | MIC [22]: 0.39 µg/mL (≈ 1.03 µM) | MIC [23]: 0.78 µg/mL (≈ 2.05 µM) | MIC [24]: 6 ng/mL (≈ 0.0158 µM) | MIC [25]: 6 ng/mL (≈ 0.0158 µM) | MIC [26]: 0.05 µg/mL (≈ 0.132 µM) | MIC [27]: 0.05 µg/mL (≈ 0.132 µM) | MIC [28]: 0.05 µg/mL (≈ 0.132 µM) | MIC [29]: 0.1 µg/mL (≈ 0.263 µM) | MIC [30]: 0.2 µg/mL (≈ 0.527 µM) | MIC [31]: 1.56 µg/mL (≈ 4.11 µM) | MIC [32]: 0.78 µg/mL (≈ 2.05 µM) | MIC [33]: 0.2 µg/mL (≈ 0.527 µM) | Frequency of spontaneous resistant mutants ([34]; Conc. of Drugs 4MIC): 5.1 × 10^-8 | Frequency of spontaneous resistant mutants [35]: 3.6 × 10^-7 | Frequency of spontaneous resistant mutants [36, 37]: 7.7 × 10^-8 | Frequency of spontaneous resistant mutants [36, 38]: <6.7 × 10^-10

NC1CCN(c2c(F)cc3c(=O)c(C(=O)O)cn(C4CC4)c3c2Cl)C1 (stereo not drawn) [Example 25, 7-(3-Amino-l-pyrrolidinyl)-8-chloro-l-cyclopropyl-6-fluoro-1,4-dihydro-4-oxo-3-quinolinecarboxylic acid]
MIC [1]: 0.05 µg/mL | MIC [2]: 0.05 µg/mL | MIC [3]: 0.05 µg/mL (≈ 0.137 µM) | MIC [4]: 0.1 µg/mL | MIC [5]: 0.1 µg/mL (≈ 0.273 µM) | MIC [6]: 0.1 µg/mL | MIC [7]: ≤ 6 ng/mL | MIC [8]: 0.0125 µg/mL (≈ 0.0342 µM) | MIC [9]: 0.05 µg/mL (≈ 0.137 µM) | MIC ([10]; Citrobacter freundii): 0.0125 µg/mL (≈ 0.0342 µM) | MIC [11]: 0.05 µg/mL (≈ 0.137 µM) | MIC [12]: 0.0125 µg/mL (≈ 0.0342 µM) | MIC [13]: 0.2 µg/mL (≈ 0.547 µM) | MIC [14]: 0.05 µg/mL (≈ 0.137 µM) | MIC [15]: 0.2 µg/mL (≈ 0.547 µM) | MIC [16]: 0.78 µg/mL (≈ 2.13 µM) | MIC [17]: 0.1 µg/mL | MIC [18]: 1.56 µg/mL | MIC [19]: 0.1 µg/mL (≈ 0.273 µM) | MIC [20]: 0.2 µg/mL | MIC [21]: 0.05 µg/mL (≈ 0.137 µM) | MIC [22]: 0.1 µg/mL (≈ 0.273 µM) | MIC [23]: 0.2 µg/mL (≈ 0.547 µM) | MIC [24]: 13 ng/mL (≈ 0.0355 µM) | MIC [25]: 6 ng/mL (≈ 0.0164 µM) | MIC [26]: 0.05 µg/mL (≈ 0.137 µM) | MIC [27]: 0.05 µg/mL (≈ 0.137 µM) | MIC [28]: 0.05 µg/mL (≈ 0.137 µM) | MIC [29]: 0.025 µg/mL (≈ 0.0683 µM) | MIC [30]: 0.1 µg/mL (≈ 0.273 µM) | MIC [31]: 0.78 µg/mL (≈ 2.13 µM) | MIC [32]: 0.1 µg/mL (≈ 0.273 µM) | MIC [33]: 0.05 µg/mL (≈ 0.137 µM) | Frequency of spontaneous resistant mutants ([34]; Conc. of Drugs 2MIC): 2.9 × 10^-8 | Frequency of spontaneous resistant mutants ([34]; Conc. of Drugs 4MIC): <2.9 × 10^-9 | Frequency of spontaneous resistant mutants [35]: <2.9 × 10^-9 | Frequency of spontaneous resistant mutants [36, 37]: <6.7 × 10^-10 | Frequency of spontaneous resistant mutants [36, 38]: <6.7 × 10^-10
